“Also recorded” adds a separate entry of the source.
Columns and labels:
[1] = test system: Arom^hum mice; test: Hernia prevention in Arom^hum mice (treatment before hernia formation); format: in vivo, mouse; conditions: male Arom^hum mice; 12-week treatment started at 3-3.5 weeks of age (before hernia formation); vs placebo
Text: Our study design is robust, utilizing Arom^hum mice with endpoints examined after treatment with placebo or anti-P4/PGR, and compared to those of WT littermates using 2 different tissue sites: UAM and LAM (normal or weakened/herniated). Inguinal hernia affects predominantly men vs. women (10:1 ratio). Inguinal hernias are unique to male mice and aged men. […] Here, we will focus on the effects of P4/PGR action on skeletal muscle integrity and hernia formation in males, and our work will be carried out in male mice or tissues primarily from men over 50 years of age. We will use mouse or human tissues or primary cells to closely recapitulate in vivo pathology.
(§1) The mouse scrotum is connected to the peritoneal cavity with a narrow funicular (or inguinal) canal, with walls composed of LAM tissue. Structurally normal LAM tissue is essential to maintain the tone of this canal and prevent herniation of the bowel.
Experiment 1a1: Does the addition of P4 to E2 treatment accelerate LAM fibrosis and hernia formation in WT mice? […] We hypothesize that this effect is primarily mediated by the E2 induction of PGR expression in LAM fibroblasts. […] If this were true, the addition of pharmacologic quantities of P4 (75 mg/pellet for 12-week release)^73 to E2 (0.3 mg/pellet for 12-week release)^23-25 in WT mice should accelerate this phenotype. […] See Statistical Methods above for sample size calculation. Hernia surface area will be measured using a digital caliper and calculated as previously described (length×width)^19. At the designated endpoints, LAM and UAM (control) from each mouse will be resected, with one-half of the tissue snap-frozen in liquid nitrogen, and the other half fixed in 4% phosphate-buffered paraformaldehyde for histological and IHC analyses (see below). All tissue and serum (for P4/E2 levels) samples will be collected between 10:00 AM and noon to avoid possible variability in daily hormone fluctuations. […] We will continue to complete the rest of the proposed study in this subaim. We will also assess whether and extent of muscle fibrosis and atrophy will be induced in P4+E2-induced large hernias and E2-induced small hernias. […] P4 antagonists show various levels of selectivity for PGR. […] The use of 3 distinct P4/PGR antagonists with different properties will establish the role of PGR in muscle fibrosis and hernia.
Hernias will be classified as small, medium, or large if the bulging area through muscle tissue is 125-175 mm^2, 175-225 mm^2, or >225 mm^2, respectively. […] We will assess whether muscle fibrosis, atrophy, and hernia are arrested or reversed. […] Hernia size will be measured. After completion of treatment, the mice will be dissected, and LAM, UAM (control), and serum will be collected. A total of 100 mg of tissue (LAM and UAM) will be obtained and frozen for measurement of tissue E2/P4.

[2] = test system: WT mice; test: E2/P4-induced hernia formation in WT mice; format: in vivo, mouse; conditions: WT male mice
Text: as §1, with “All placebo-treated Arom^hum mice developed hernias starting from 5 weeks of age. None of the WT littermates developed hernias. […] The” for “The”
Experiment 1a1: Does the addition of P4 to E2 treatment accelerate LAM fibrosis and hernia formation in WT mice? It was shown that treatment of male WT mice with extremely high doses of systemic estrogens starting around or after the onset of puberty caused inguinal hernia in one third to half of these animals^23-25. We hypothesize that this effect is primarily mediated by the E2 induction of PGR expression in LAM fibroblasts. Male mice have readily detectable P4 levels in the circulation and LAM tissue to activate PGR in LAM fibroblasts (FIG. 6). If this were true, the addition of pharmacologic quantities of P4 (75 mg/pellet for 12-week release)^73 to E2 (0.3 mg/pellet for 12-week release)^23-25 in WT mice should accelerate this phenotype. Our ongoing preliminary study, whereby a 6-week treatment with P4+E2 induced large inguinal hernia in all WT mice (FIG. 7A), supports the following experiment. Long-term (8 weeks or longer) treatment with E2 only is anticipated to cause hernias in up to half of WT mice based on previous findings^23-25. We will determine whether P4+E2 treatment over 12 weeks will give rise to larger hernias in a higher number of mice compared with E2-only treatment. […] See Statistical Methods above for sample size calculation. Hernia surface area will be measured using a digital caliper and calculated as previously described (length×width)^19. At the designated endpoints, LAM and UAM (control) from each mouse will be resected, with one-half of the tissue snap-frozen in liquid nitrogen, and the other half fixed in 4% phosphate-buffered paraformaldehyde for histological and IHC analyses (see below). […]

[3] = test system: Arom^hum mice; test: Reversal of existing (large) hernias in Arom^hum mice; format: in vivo, mouse; conditions: Arom^hum mice with large hernias; 3.75 mg/pellet, 12-week subcutaneous release; n=10-11
Text: Arrows in panels B and D point to hernias.
The scrotal area in WT mice is under ˜125 mm^2. We classified hernias as small, medium, or large based on the bulging area through muscle tissue of 125-175 mm^2, 175-225 mm^2, or ≥225 mm^2, respectively. […] Since long-term anti-E2/ESR1 treatments cause significant side effects (e.g., sexual dysfunction or osteoporosis), we mechanistically explored the specific and major downstream effectors of E2/ESR1 signaling leading to muscle fibrosis. […] The key observations that support the role of P4/PGR signaling are summarized below.

[4] = test system: PGR expression in LAM fibroblasts of Arom^hum mice; test: E2/ESR1-induced PGR expression (mRNA, immunoblotting) in LAM fibroblasts; format: cell-based, mouse; conditions: for E2-induced expression of Pgr (mRNA): 100 nM ICI 182,780 or 10 μM MPP, pretreated 2 h, E2 10 nM
Protocol: (A) Time course of E2 (10 nM) effect on PGR protein expression in LAM fibroblasts of Arom^hum mice. […] (E) PGR protein levels in LAM primary fibroblasts from WT and Arom^hum mice after treatment with ICI with or without E2 for 48 h. Cells were pretreated with ICI or MPP for 2 h before adding E2. Data are representative of 3 independent experiments; B-actin serves as a loading control for (A) and (E). Vch: vehicle. […] MPP: A selective ESR1 antagonist.
Breast cancer cell line T47D served as a positive control.

[5] = test system: Arom^hum mice; conditions: earlier work of the applicant (refs 19, 22); cited from earlier work
[6] = test system: Arom^hum mice; conditions: previously shown (ref 19); cited from earlier work

C[C@]12CCC(=O)C[C@@H]1CC[C@@H]1[C@@H]2CC[C@]2(C)[C@@H](O)CC[C@@H]12 [DHT]
hernia formation / hernia size [1]: None prevented hernia formation

CC(=O)[C@H]1CC[C@H]2[C@@H]3CCC4=CC(=O)CC[C@]4(C)[C@H]3CC[C@]12C [P4, Progesterone]
hernia formation ([2]; treatment started at 9-10 weeks of age, up to 12 weeks): did not induce any hernia formation

C[C@]12CC[C@@H]3c4ccc(O)cc4C[C@@H](CCCCCCCCC[S+]([O-])CCCC(F)(F)C(F)(F)F)[C@H]3[C@@H]1CC[C@@H]2O (some centres unmarked) [fulvestrant]
reversal of large hernias, LAM fibrosis and muscle atrophy [3]: reversed large hernias and restored normal anatomy and reversed LAM tissue fibrosis and muscle atrophy; also recorded: successfully reversed them to normal size, rescued LAM fibrosis, reversed muscle atrophy, and restored normal anatomy
E2-induced expression of Pgr (mRNA) [4]: significantly decreased E2-induced expression of Pgr
protein levels of 3 PGR isoforms (immunoblotting) ([4]; LAM fibroblasts of WT and Arom^hum mice, ICI with or without E2 for 48 h): blocked
reversal of existing hernias [5]: reversed existing hernias and restored normal anatomy in Arom^hum mice

Cc1cc(-c2ncc(CC(=O)Nc3ccc(-c4cnccn4)cn3)cc2C)ccn1 [LGK974]
hernia formation / hernia size [1]: None prevented hernia formation

N#Cc1ccc(C(c2ccc(C#N)cc2)n2cncn2)cc1 [letrozole, Letrozole]
reversal of existing hernias [5]: reversed existing hernias and restored normal anatomy in Arom^hum mice
prevention of LAM fibrosis and hernia formation [6]: entirely prevents this phenotype

C[C@]12CC[C@@H]3c4ccc(O)cc4CC[C@H]3[C@@H]1CC[C@@H]2O [E2, Estradiol]
hernia size induced ([2]; treatment started at the age of 9 weeks): 125-175 mm2

Cc1c(-c2ccc(O)cc2)nn(-c2ccc(O)cc2)c1-c1ccc(OCCN2CCCCC2)cc1 [MPP]
E2-induced expression of Pgr (mRNA) [4]: significantly decreased E2-induced expression of Pgr

— patent US20250186461A1, “METHODS AND COMPOSITIONS FOR TREATING AND/OR PREVENTING HERNIAS” (Northwestern University, priority 2023, published 2025)
